Source: US8063247B2, “Bicyclic aryl and heteroaryl receptor modulators” (Prosidion Limited, priority 2007, dated 2011)

What was measured:
mu-opioid receptor [1] = biological target: T1, mu-opioid receptor (Homo sapiens, UniProt P35372); assay: Competition binding assay (3H-DAMGO); details: mu-opioid receptor expressing membranes, 0.5 nM 3H-DAMGO
Experimental: Competition Binding Assays
Mu-, kappa- or delta-opioid receptor expressing membranes (5-15 μg/well) were suspended in 50 mM Tris buffer pH 7.6 containing 5 mM MgCl2 and were incubated on 96-well plates with test compound or vehicle (1% DMSO) and either 0.5 nM ^3H-DAMGO, 0.8 nM ^3H-U-69,595 or 1.1 nM ^3H-DPDPE respectively in a total volume of 200 μL for 90 min at rt (22° C.). The contents of the wells were filtered and washed 5 times with chilled 50 mM Tris buffer pH 7.6 through H2O pre-soaked GF/B filters using a Perkin Elmer Filtermate. The filters were dried and upon application of scintillant the bound radioactive content for each well determined by scintillation counting in a Wallac TriLux Microbeta scintillation counter. Non-specific binding was determined in the presence of 2 μM Naloxone. IC50 values were determined by plotting log concentration test compound against specific binding and subsequent Ki values calculated.

mu-opioid receptor [2] = biological target: T1, mu-opioid receptor; assay: GTPγS functional binding assay (DAMGO-stimulated); format: biochemical; details: mu-opioid receptor expressing membranes, agonist DAMGO 10 nM, 35S-GTPγS binding
Experimental: GTPγS Functional Binding Assays
Mu-, kappa- or delta-opioid receptor expressing membranes (5-20 μg/well) were suspended in 50 mM HEPES buffer pH 7.6 containing 3 mM MgCl2, 120 mM NaCl, 150 pM GTPγS, 10 μg/mL saponin and 3 μM GDP (μ-opioid receptor assay) or 5 μM GDP (κ- and δ-opioid receptor assay) and were pre-incubated on 96-well plates with test compound or vehicle (1% DMSO) in a total volume of 160 μL for 10 min at rt (22° C.). Specific agonists DAMGO (10 nM final concentration), U-50,488 (30 nM final concentration) or SNC-80 (10 nM final concentration) were added respectively and the plates pre-incubated for a further 15 min at rt (22° C.) ^35S-GTPγS at a final concentration in the assay of 150 pM was then added to provide a total volume per well of 200 μL and the plates incubated for 45 min at 30° C. The contents of the wells were filtered and washed 5 times with chilled 50 mM Tris buffer pH 7.6 through H2O pre-soaked GF/B filters using a Perkin Elmer Filtermate. The filters were dried and upon application of scintillant the bound radioactive content for each well determined by scintillation counting in a Wallac TriLux Microbeta scintillation counter. Non-specific binding was determined in the presence of 10 μM GTPγS. IC50 values were determined by plotting log concentration test compound against percentage increase over non-stimulated ^35S-GTPγS binding.

T1 sequence (P35372 whole entry, species assumed): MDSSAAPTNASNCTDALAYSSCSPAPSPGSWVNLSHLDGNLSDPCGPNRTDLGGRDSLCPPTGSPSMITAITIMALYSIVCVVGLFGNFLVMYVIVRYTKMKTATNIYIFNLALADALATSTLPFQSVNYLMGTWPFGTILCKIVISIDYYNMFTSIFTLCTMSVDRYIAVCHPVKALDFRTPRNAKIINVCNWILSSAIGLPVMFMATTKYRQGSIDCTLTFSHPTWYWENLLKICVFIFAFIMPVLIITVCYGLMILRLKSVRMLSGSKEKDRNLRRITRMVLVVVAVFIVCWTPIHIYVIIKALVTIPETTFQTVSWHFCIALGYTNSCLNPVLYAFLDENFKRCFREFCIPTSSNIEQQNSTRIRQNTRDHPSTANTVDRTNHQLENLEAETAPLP

| Ki (mu-opioid receptor [1]) | IC50 (mu-opioid receptor [2]) | Structure (SMILES) |
| --- | --- | --- |
| < 0.1 µM | < 0.1 µM | NC(=O)c1cccc(-c2ccc(CNCCC3C4CC5CC(C4)CC3C5)cn2)c1 (stereo not shown) [Example 84, 3-{5-[(2-Adamantan-2-ylethylamino)methyl]-pyridin-2-yl}benzamide] |
| < 0.1 µM | < 0.1 µM | Cc1cc(CNCCC2C3CC4CC(C3)CC2C4)ccc1-c1cccc(C(N)=O)c1 (stereo not shown) [Example 46, 4′-[(2-Adamantan-2-yl-ethylamino)methyl]-2′-methylbiphenyl-3-carboxylic acid amide] |
